Changes are numbered by the printed parent chain.
Experiments:
Type in all cases: binding
pig kidney FBPase L56A = biological target: T1, pig kidney FBPase L56A (Sus scrofa, UniProt P00636, L57A); assay: Differential scanning fluorimetry, L56A mutant; settings: enzyme L56A
T1 construct: His6 (C); made in house; host or cells: Escherichia coli BL21 (DE3)
T1 sequence (P00636 1-338 L57A): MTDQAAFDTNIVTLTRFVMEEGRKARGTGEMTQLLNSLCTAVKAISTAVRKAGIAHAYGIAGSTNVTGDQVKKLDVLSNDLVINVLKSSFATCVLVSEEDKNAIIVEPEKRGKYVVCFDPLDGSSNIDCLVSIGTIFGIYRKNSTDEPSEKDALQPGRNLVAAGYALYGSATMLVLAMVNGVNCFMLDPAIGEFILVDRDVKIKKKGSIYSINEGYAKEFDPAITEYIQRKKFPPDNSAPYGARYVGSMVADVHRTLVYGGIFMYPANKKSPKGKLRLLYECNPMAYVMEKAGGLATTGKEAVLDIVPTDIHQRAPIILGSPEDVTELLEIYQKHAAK
Experimental: (§1) Differential scanning fluorimetry (DSF) assays were designed and implemented to run on WT and each mutant for the purpose of determining relative stabilities by melting point, and to detect structural changes in the enzymes upon ligand binding. Thermal shift assays were performed with a Light Cycler 96 System Real-Time PCR machine (Roche) using Sypro-Orange dye (Invitrogen) and thermal ramping (0.25°C per min between 20 and 85°C). […] Data were processed using the Boltzmann equation to generate sigmoidal denaturation curves, and average Tm/ΔTm values were calculated as previously described using GraphPad Prism software package.

pig kidney FBPase K112A = biological target: T2, pig kidney FBPase K112A (Sus scrofa, UniProt P00636, K113A); assay: Differential scanning fluorimetry, K112A mutant; settings: enzyme K112A
T2 construct: His6 (C); made in house; host or cells: Escherichia coli BL21 (DE3)
T2 sequence (P00636 1-338 K113A): T1 sequence (P00636 1-338 L57A) with A57L, K113A
Experimental: as §1

pig kidney FBPase M248D = biological target: T3, pig kidney FBPase M248D (Sus scrofa, UniProt P00636, M249D); assay: Differential scanning fluorimetry, M248D mutant; settings: enzyme M248D
T3 construct: His6 (C); made in house; host or cells: Escherichia coli BL21 (DE3)
T3 sequence (P00636 1-338 M249D): T1 sequence (P00636 1-338 L57A) with A57L, M249D
Experimental: as §1

pig kidney FBPase L73A = biological target: T4, pig kidney FBPase L73A (Sus scrofa, UniProt P00636, L74A); assay: Differential scanning fluorimetry, L73A mutant; settings: enzyme L73A
T4 construct: His6 (C); made in house; host or cells: Escherichia coli BL21 (DE3)
T4 sequence (P00636 1-338 L74A): T1 sequence (P00636 1-338 L57A) with A57L, L74A
Experimental: as §1

pig kidney FBPase Y164A = biological target: T5, pig kidney FBPase Y164A (Sus scrofa, UniProt P00636, Y165A); assay: Differential scanning fluorimetry, Y164A mutant; settings: enzyme Y164A
T5 construct: His6 (C); made in house; host or cells: Escherichia coli BL21 (DE3)
T5 sequence (P00636 1-338 Y165A): T1 sequence (P00636 1-338 L57A) with A57L, Y165A
Experimental: as §1

melting point of enzyme with AMP (100 µM) (pig kidney FBPase L56A; AMP 100 µM)	reduction in melting temperature, presence of AMP vs absence of ligand (pig kidney FBPase K112A)	melting point of enzyme with AMP (100 µM) (pig kidney FBPase K112A; AMP 100 µM)	melting point of enzyme with AMP (100 µM) (pig kidney FBPase M248D; AMP 100 µM)	melting point of enzyme with AMP (100 µM) (pig kidney FBPase L73A; AMP 100 µM)	melting point of enzyme with AMP (100 µM) (pig kidney FBPase Y164A; AMP 100 µM)	melting point of enzyme with Mg^2+ ([…]) (pig kidney FBPase L56A; Mg^2+ […])	melting point of enzyme with Mg^2+ ([…]) (pig kidney FBPase K112A; Mg^2+ […])	melting point of enzyme with Mg^2+ ([…]) (pig kidney FBPase M248D; Mg^2+ […])	melting point of enzyme with Mg^2+ ([…]) (pig kidney FBPase L73A; Mg^2+ […])	melting point of enzyme with Mg^2+ ([…]) (pig kidney FBPase Y164A; Mg^2+ […])	SMILES
57.0 (± 2.75) °C	5–9 °	42.0 (± 2.50) °C	59.0 (± 2.50) °C	56.0 (± 3.00) °C	55.0 (± 2.25) °C						Nc1ncnc2c1ncn2[C@@H]1O[C@H](COP(=O)(O)O)[C@@H](O)[C@H]1O [AMP]
						56.0 (± 2.50) °C	51.0 (± 2.50) °C	65.0 (± 1.75) °C	56.5 (±2.25) °C	55.2 (± 1.75) °C	[Mg+2] [Mg^2+, magnesium]
